Data published in patent publication US11173173B2, “Methods for treating chemoresistant cancer-initiating cells” (UNIVERSITY OF CONNECTICUT, priority 2015, dated 2021).

Assays:
[1] = tested on: T-ALL blast cells, LSCs and HSPCs of leukemic Pten:β-cat^Act mice; test: Flow cytometry of BM of treated leukemic mice (blast cells, LSCs, HSPCs); assay type: in vivo, mouse; conditions: 10 days post-treatment
Experimental: (§1) Leukemic mice were treated with vehicle, chemotherapy, [Low]DXR or chemotherapy+[Low]DXR as described in FIG. 3a. a-c, At 10 days post-treatment, BM was analyzed by flow cytometry to determine frequency of blast cells (a), LSCs (b) and HSPCs (c). Shown are representative plots. d, Average frequency±SD of each population from a-c (n≥6 per group). e, Limiting-dilution assays to determine CRU frequency were performed on blast cells and LSCs sorted from chemotherapy treated leukemic mice and on HSPCs sorted from [Low]DXR treated mice. Engraftment 1% blast cells) was determined in NSG recipients at 10-12 weeks post-transplant.
Whole bone marrow was isolated from uninduced HSC-SCL-Cre^+ Pten^fx/fx βcat^fx(Exon3)/+ (Pten:β-cat^Act) mice and combined with an equal portion of Cre negative bone marrow from a littermate and transplanted into irradiated (10 Gy) B6.SJL-Ptprc^a Pepc^b/BoyJ (Ptprc) recipients.
Chemotherapy consisted of Nelarabine (Selleck) and Dexamethasone (BioVision) administered daily for 5 days consecutively. 43.4 mg/ml Nelarabine was administered intravenously via the tail vain according to the formula: Body Weight (g)×5=volume to inject (μl), which yielded 217 mg/kg. 2.5 mg/ml Dexamethasone was injected intraperitoneally according to the formula: Body Weight (g)×4=volume to inject (μl), yielding 10 mg/kg. […] [Low]NanoDXR (also referred to as [Low]NanoDoxo throughout) treatment used doxorubicin nanoparticles as described in International Patent Publication WO 2015/054269 (incorporated by reference in its entirety) administered as a single IV injection once per week on day 1 relative to above treatments using 0.8 mg/kg. Maintenance [Low]NanoDXR consisted of once per week injections of 0.4 mg/kg. Groups combining Nelarabine with Doxorubicin used a single injection containing both drugs. All drugs were solubilized in 45% (2-Hydroxypropyl)-β-cyclodextrin (HBC).
Cells were collected from bone marrow (femur and tibia), spleen, peripheral blood, and thymus. For cell surface phenotyping, a lineage cocktail (Lin) was used including CD3 (for HSPC but not LSC analysis), CD4, CD8, Mac-1, Gr1, B220, IgM, and Ter119 (eBioscience, San Diego, Calif.). Monoclonal antibodies against CD3 (separate fluorophore for LSC analysis), Sca-1, c-Kit, CD45.1, and CD45.2 were also used where indicated. Cell sorting and analysis were performed using an inFlux (BD), MoFlo (Dako, Ft. Collins, Colo.) and/or CyAn ADP (Dako, Ft. Collins, Colo.). Data analysis was performed using FlowJo software (Ashland, Oreg.).

[2] = tested on: blast cells, LSCs and HSPCs sorted from treated leukemic mice; test: Limiting-dilution transplants into NSG recipients, CRU frequency (ELDA); assay type: in vivo, mouse; conditions: for Engrafted: HSPCs
Experimental: as §1
Limiting-dilution and tumorigenic assays were performed by establishing leukemic mice as described above and treating as indicated at 8 weeks post-induction. For limiting-dilution transplants, mice were treated with chemotherapy or [Low]DXR and, at 10 days post-treatment (based on first treatment), CD45^Hi CD^3+ c-Kit^− blast cells or Lin^− CD^3+ c-Kit^Mid LSCs were sorted from chemotherapy treated mice and Lin^− Sca-1^+ c-Kit^+ HSPCs were sorted from [Low]DXR treated mice. The indicated numbers of these populations were transplanted into 3.25 Gy irradiated NOD. Cg-Prkdc^scid II2rg^tm1WjI/SzJ (NSG) recipient mice. Recipient bone marrow was analyzed by flow cytometry at 10-12 weeks post-transplant and those with ≥1% CD45^Hi blast cells in bone marrow were considered engrafted. CRU frequency was determined using ELDA analysis.

pan β-catenin = test: Western analysis of pan β-catenin in compound-treated TOP and FOP cells; conditions: TOP and FOP cells treated 48 hours at EC90, EC50, EC25
Experimental: Cytotoxicity profiles (CTG) of compounds were also determined. […] TOP and FOP cells were treated with candidate compounds at EC90, EC50 and EC25 derived from (b) for 48 hours, washed and flash frozen for Western analysis (c).
Activity of compounds was tested against HEK-TOP cells vs. HEK FOP cells for inhibition of luciferase activity. The cytotoxicity profiles of the compounds were also tested using Cell Titer Glo assay (Promega) on HEK-TOP cell lines. […] The HEK cells and HEK Top cells were plated at 300,000 cells/well in 6 well plates and were treated in duplicate with EC90, EC50 and EC25 concentrations of the 25 repurchased compounds as well as three controls. After 48 h of exposure, the cells were washed with PBS and flash frozen. The frozen cells were lysed directly in plates for Western analysis.

COc1cccc2c1C(=O)c1c(O)c3c(c(O)c1C2=O)C[C@@](O)(C(=O)CO)C[C@@H]3O[C@H]1C[C@H](N)[C@H](O)[C@H](C)O1 [DXR, doxorubicin]
LSC reduction, free DXR 5 doses of 0.15 μg/g ([1]; 5 daily injections 0.15 μg/g): ineffective | HSPCs in BM vs vehicle ([1]; [Low]DXR 0.5 mg/kg daily x5): allowed significant recovery of HSPCs | LSCs in BM vs vehicle ([1]; [Low]DXR 0.5 mg/kg daily x5): significantly reduced LSCs compared to vehicle | blast cells in BM vs vehicle ([1]; [Low]DXR 0.5 mg/kg daily x5): did not significantly reduce blast cells | blast cells in BM, [Low]DXR in combination with dexamethasone ([1]; [Low]DXR with Dexa.): does not act as a traditional chemotherapeutic | blast cells in BM, clinical equivalent (normal) dose DXR ([1]; normal dose DXR (8x higher than [Low]) with Dexa.): acted similar to chemotherapy in their reduction | engraftment behaviour of HSPCs sorted from treated mice ([2]; 10-12 weeks post-transplant): only engrafted at low levels without developing into leukemia | Engrafted ([2]; dose 50, 5 tested): 0 | Engrafted ([2]; dose 150, 6 tested): 1 | Engrafted ([2]; dose 450, 5 tested): 1 | effect on pan β-catenin (Western) (pan β-catenin): only minimal effect on pan β-catenin
